Measured values published in publication PMC5154303, “Flavonol and imidazole derivatives block HPV16 E6 activities and reactivate apoptotic pathways in HPV^+ cells” (Cell Death & Disease, 2016).

Assays:
Type in all cases: cell-based, human
[1] = tested on: SiHa cells; assay: TRAIL-induced apoptosis in SiHa cells (MTT); settings: for viability at 125 µM / EC50: Homo sapiens; for viability at 125 µM: SiHa, 125 μM compound, TRAIL 100 ng/ml + cycloheximide 5 μg/ml, cells without small molecule = 100%, read-out: viability of SiHa cells in the presence of TRAIL; for EC50 / increase in cell death in the presence versus absence of TRAIL: SiHa cells; for EC50: compound 4 h prior to TRAIL 100 ng/ml + cycloheximide 5 μg/ml, overnight, MTT; for increase in cell death in the presence versus absence of TRAIL: from the EC50 values of Table 2
Protocol: (§1) Figure 3 (a) HPV^+ SiHa cells are resistant to TRAIL-induced apoptosis as compared with the human osteosarcoma cell line U2OS. Cells (2 × 10^4 cells per well) were seeded into a 96-well plate, allowed to incubate overnight, and then treated with the indicated concentration of TRAIL in the presence of cycloheximide (5 μg/ml). The viability of cells was measured after overnight incubation using the MTT assay; the viability of cells untreated with TRAIL was set at 100% for each group. (b) The indicated concentrations of three small molecules were added to SiHa cells, and an MTT assay was preformed after overnight incubation. The viability of cells untreated with small molecules was set as 100%. (c) The indicated concentrations of myricetin or spinacine were added 4 h prior to TRAIL (100 ng/ml) in the presence of cycloheximide (5 μg/ml) and incubated at 37 °C overnight. The viability of cells untreated with small molecules was set at 100%. (d and e) SiHa cells (2 × 10^4 cells per well) were seeded into a 96-well plate and allowed to incubate overnight. In all, 100 μM of myricetin and 50 μM of spinacine were added 4 h prior to either (d) doxorubicin or (e) cisplatin. Cell viability was measured after overnight incubation using the MTT assay, and the viability of cells untreated with either myricetin or spinacine was set at 100%. Experiments were performed in triplicate, and error bars indicate the S.D.
Figure 5 Myricetin and spinacine (5) can re-sensitize HPV^+, but not HPV^−, cells to treatment with TRAIL. SiHa (2 × 10^4 cells per well) and C33A cells (1 × 10^4 cells per well) were seeded into a 96-well plate and allowed to incubate overnight, and then cells were pretreated in the presence or absence of (a) myricetin (100 μM) or (b) spinacine (50 μM) for 4 h. The indicated concentration of TRAIL along with cycloheximide (5 μg/ml) was added, and the cells were allowed to incubate overnight. Cell viability was measured by MTT assay, and the viability of cells untreated with TRAIL was set at 100%. Experiments were performed in triplicate, and error bars indicate the S.D.
The extracellular domain of human TRAIL was cloned into a pTriEx expression plasmid containing N-terminal Hisx6 tag. His-TRAIL was expressed in the E. coli BL-21 pLys strain and purified as previously described. Doxorubicin and cisplatin were purchased from Sigma. His-TRAIL, doxorubicin, and cisplatin were diluted in PBS to the desired concentration before using. To measure cell survival following treatment with TRAIL, cisplatin and doxorubicin, SiHa (2 × 10^4/well), C33A (1 × 10^4/well), and HNSCC cells (2 × 10^4/well) were seeded into 96-well plates and allowed to adhere overnight. Small molecules at the desired concentration were added and incubated at 37 °C for 4 h. As indicated, TRAIL, cisplatin, or doxorubicin was then added. The TRAIL treatment group contained cycloheximide (5 μg/ml) to inhibit de novo protein synthesis, and the cells were incubated for 16 h prior to measuring cell viability by the MTT assay preformed as described previously.[38] All experiments were repeated at least three times (three biological replicates, carried out on different days), with each experimental group measured in triplicate within each of these individual experiments. Data presented are from a representative experiment.

[2] = tested on: UM-SCC47-TC-Clone 3; assay: TRAIL-induced cell death in HPV+ HNSCC line UM-SCC47-TC-Clone 3 (MTT); settings: HPV+ 47CL3, 40 μM compound 4 h, 50 ng/ml TRAIL + cycloheximide
Protocol: Figure 7 Myricetin and spinacine (5) can re-sensitize HPV^+, but not HPV^−, head and neck cancer cell lines to treatment with TRAIL. (a) Both HPV^− and HPV^+ HN cancer cell lines display resistance to TRAIL treatment. (b) HPV^− (UMSCC 29 and SCC 84) and (c) HPV^+ (UMSCC 47, UPCI-SCC90-UP-Clone 35, and UM-SCC47-TC-Clone 3) head and neck cancer cell lines (2 × 10^4 cells per well) were seeded into 96-well plates and allowed to incubate overnight, and then cells were pretreated with myricetin (0–200 μM) or spinacine (0–100 μM) for 4 h. […] Cell viability was measured by the MTT assay, and the viability of cells untreated with small molecules was set at 100%. Experiments were performed in triplicate, and error bars indicate the S.D.
The extracellular domain of human TRAIL was cloned into a pTriEx expression plasmid containing N-terminal Hisx6 tag. His-TRAIL was expressed in the E. coli BL-21 pLys strain and purified as previously described. Doxorubicin and cisplatin were purchased from Sigma. His-TRAIL, doxorubicin, and cisplatin were diluted in PBS to the desired concentration before using. […] All experiments were repeated at least three times (three biological replicates, carried out on different days), with each experimental group measured in triplicate within each of these individual experiments. […]

[3] = tested on: caspase 3/7; assay: Caspase 3/7 activity assay in SiHa cells; settings: 100 μM myricetin or 50 μM spinacine 4 h, then TRAIL 100 ng/ml + cycloheximide, 0–6 h, versus controls
Protocol: Figure 4 Myricetin and spinacine (5) increase caspase 3/7 activity in SiHa cells following treatment with TRAIL and chemotherapy drugs. SiHa cells (2 × 10^4 cells per well) were seeded into a 96-well plate and allowed to incubate overnight and then pretreated with 100 μM of myricetin or 50 μM of spinacine for 4 h. (a) TRAIL (100 ng/ml), along with cycloheximide (5 μg/ml), (b) cisplatin (50 μM), or (c) doxorubicin (2 μM) were added respectively. Caspase 3/7 activity was measured after 0, 1.5, 3, and 6 h using the CellTiter-Glo assay. Activity at 0 h of treatment was set at 100% for each group. Experiments were performed in triplicate, and error bars indicate the S.D.
Cells were plated into 96-well plates at a density of 2 × 10^4 cells per well and incubated overnight. Small molecules were then added and incubated at 37 °C for 4 h. TRAIL (100 ng/ml), cisplatin (50 μM), and doxorubicin (2 μM) were then added. […] Caspase 3/7 activity was measured using the flourogenic substrate CellTitier-Glo for caspase 3/7 activity (Promega, Fitchburg, WI, USA) following the manufacturer's instructions. […] After a 10-min incubation, the released fluorophore was measured using a plate-reading fluorimeter (Flx800, Bio-Tek Instrument Co., Winooski, VT, USA). […] The resulting difference was expressed as a percentage of the caspase activity of the untreated cells.

[4] = tested on: SiHa cells; assay: Sensitization of SiHa cells to cisplatin (MTT); settings: 100 μM myricetin or 50 μM spinacine 4 h prior to cisplatin, versus negative control
Protocol: as §1, with “The viability of cells untreated with small molecules was set at 100%. (d and e) SiHa cells (2 × 10^4 cells per well) were seeded into a 96-well plate and allowed to incubate overnight. In all, 100 μM of myricetin and 50 μM of spinacine were added 4 h prior to either (d) doxorubicin or (e) cisplatin.” left out, “Experiments were performed in triplicate, and error bars indicate the S.D.” left out
The extracellular domain of human TRAIL was cloned into a pTriEx expression plasmid containing N-terminal Hisx6 tag. […] All experiments were repeated at least three times (three biological replicates, carried out on different days), with each experimental group measured in triplicate within each of these individual experiments. […]

SMILES	sensitivity of SiHa cells to TRAIL ([1]; 100 μM myricetin pretreatment 4 h, TRAIL up to 100 ng/ml + cycloheximide)	viability at 125 µM [1]	EC50 [1]	increase in cell death in the presence versus absence of TRAIL [1]	enhancement of TRAIL-induced cell death [2]	caspase 3/7 activity in combination with TRAIL [3]	sensitivity of SiHa cells to cisplatin [4]
O=c1c(O)c(-c2cc(O)c(O)c(O)c2)oc2cc(O)cc(O)c12 [Myricetin, myricetin, reference compound]	increased dramatically	30 to 40%	155 µM	3.5 fold	70%	increased	increased the sensitivity
O=C(O)C1Cc2[nH]cnc2CN1 (stereo not shown) [Spinacine (5), 4,5,6,7-tetrahydro-1H-imidazo[4,5–c]pyridine-6-carboxylic acid]	–	30 to 40%	31.3 µM	8.6 fold	~60%	increased	increased the sensitivity
